Where a name gives a salt, the structure may show the parent alone.
Columns and labels:
bradykinin = assay: Antipruritic effect test (therapeutical test) of chelated zinc compounds other than zinc picolinate, bradykinin; assay type: in vivo, guinea pigs; settings: 1% (by weight), 0.1 ml applied 5 minutes after bradykinin 50 µg/0.5 ml intradermal; average score compared with Vehicle control group; 85% or less judged effective
Procedure: Healthy male guinea pigs (weighing 450 - 600 g) depilated at the right abdominal side part by electrical clippers on the previous day were divided into three groups of 6. At the right abdominal side part was intradermally administered 50 µg/0.5 ml of bradykinin, and 5 minutes later, one group was externally applied at the site where bradykinin had been applied with only the vehicle for external application (Vehicle control), and other groups with each 1% (by weight) concentration of samples in each 0.1 ml amount, and the average value of the scores of antipruritic activity by pruriginous behaviors was examined by comparison with the Vehicle control group.
The antipruritic effect was judged to be effective for an average value of the scores of 85% or less.

pruritus of bradykinin [1] = assay: Antipruritic effect test (therapeutical test), bradykinin pruriogeneic animal, sample applied 5 minutes after bradykinin; assay type: in vivo, Hartley-strain male guinea pigs; settings: 1 wt.%
Procedure: (§1) Using healthy Hartley-strain male guinea pigs, bradykinin, which is a pruriogeneic substance, was intradermally introduced at the side abdominal part to obtain a pruriogeneic animal.
(§2) The pruriginous behaviors were rated according to the standards shown below, and represented as pruriginous activity.
(§3) For four or six guinea pigs of one group, the above-mentioned behavior observation was conducted by three or more members at the same time for 20 minutes, and the pruriginous activity (score) determined as an average value ± standard deviation of the evaluation scores, and the antripruritic effect judged by the significance difference test with the Vehicle control group according to the Student's T test.
Healthy guinea pigs (weighing 450 - 600 g) depilated at the right abdominal side part on the previous day were divided into three groups of 6.
Using the same test methods as described above, the zinc picolinate preparation and the crotamiton preparation each of 1% concentration were examined by comparison with the Vehicle control group.

pruritus of bradykinin [2] = assay: Antipruritic effect test, bradykinin pruriogeneic animal, sample applied immediately before bradykinin; assay type: in vivo, Hartley-strain male guinea pigs; settings: bradykinin 10 µg/0.1 ml
Procedure: as §1, §2, §3
Immediately thereafter, bradykinin 10 µg/0.1 ml was subcutaneously administered at the same applied site, and the score (average value ± standard deviation) of pruriginous activity by pruriginous behaviors was examined by comparison.
As described above in (1), healthy male guinea pigs (weighing 450 - 600 g) depilated at the right abdominal side part by electrical clippers on the previous day were divided into four groups each of four, of which one group was externally applied at the right abdominal side part with only the vehicle for external application (Vehicle control), and other groups with respective preparations of a mixture group of 1.24% by weight of picolinic acid and 2.88% by weight of zinc sulfate corresponding respectively to the picolinic acid amount and the zinc amount of 3% by weight of zinc picolinate, a 2.88% by weight zinc sulfate single substance group and a 3.17% by weight of zinc pyrithione group corresponding to the zinc amount in each 0.1 ml amount. Immediately thereafter, bradykinin 10 µg/0.1 ml was subcutaneously administered at the same applied site, and the score of pruriginous activity by pruriginous behaviors was examined by comparison.

[3] = tested on: kallikrein pruriogeneic animal; assay: Antipruritic test of kallikrein pruriogeneic animal (therapeutical test); assay type: in vivo, Hartley-strain male guinea pigs
Description: There is already known a pruriogeneic substance other than bradyokinin which cannot be inhibited by antihistamines; namely, kallikrein (International Journal of Dermatology, Vol. 14, pages 465 - 484, 1975).
Using healthy Hartley-strain male guinea pigs, bradykinin, which is a pruriogeneic substance, was intradermally administered at the side abdominal part to obtain a pruriogeneic animal.
The pruriginous behaviors were rated according to the standards shown below and represented as pruriginous activity.
as §3, with “For” for “For four or”
Healthy male guinea pigs (weighing 450 - 600 g) depilated at the right abdominal side part by electrical clippers on the previous day were divided into three groups of six.
Using the same test method as in 4-1, animals were divided into four groups of 6.

[4] = tested on: histamine pruriogeneic animal; assay: Antipruritic effect test of histamine pruriogeneic animal (therapeutical test); assay type: in vivo, Hartley-strain male guinea pigs; settings: Table 10; 3 wt.%, 0.1 ml applied five minutes after histamine 50 µg/0.05 ml intradermal; vehicle control 16.6 ± 0.5
[5] = tested on: rats (Sprague Dawley strain); assay: Acute toxicity tests; assay type: in vivo
Procedure: First, the toxicity of the antipruritic agent according to the present invention was examined. Acute toxicity tests were conducted by using healthy 5 to 6 weeks old male and female rats (Sprague Dawley strain). An oral administration was made by suspending zinc picolinate in 20% carboxymethyl cellulose, and a subcutaneous administration was made by suspending zinc picolinate in 10% carboxylmethyl cellulose.

[6] = tested on: skin (Futat skin and Abraded skin); settings: rabbit, in vivo
Procedure: The test was conducted according to the method of the FDA method (U.S. Food and Drug Administration method).
Eight Japanese White species rabbits weighing 2.3 to 3 kg were depilated at the back by electrical clippers and divided into two groups of four, one group being as such (Futat skin) and the other group having an abrasion made at the testing side (Adraded skin), and were fixed on a fixer. An amount of 0.3 ml of the test substance was applied to the skin by a sticking plaster for an animal test having a lint cloth 25 mm in diameter. After 24 hours, the sticking plaster was removed, and the reaction of the skin evaluated in terms of the degrees of erythema and edema, according to the following standards. The judgement was again performed 72 hours later.
The skin primary irritation evaluation score is shown by an average value obtained by adding average values of a judgement of the formation of erythema and edema after 24 and 72 hours for four rabbits with Futat skin and Abraded skin, and dividing the value by the animal test sample number of 4.
The standards of the evaluation score (average value) of the skin safety is as shown below. Evaluation score less than 2: slight irritation or substantially no irritation Evaluation score of 2 - 5: moderate irritation Evaluation score of 5 or more: strong irritation The results are shown in Table-2.

plasmin = target: T1, plasmin (Homo sapiens, UniProt P00747); assay: Antiplasmin activity, fibrin plate method; assay type: biochemical; settings: 50% inhibition of fibrinolytic activity by plasmin; pre-incubation 37°C 30 minutes
T1 construct: purchased Sigma
T1 sequence (P00747 581-810 limits assumed, species assumed): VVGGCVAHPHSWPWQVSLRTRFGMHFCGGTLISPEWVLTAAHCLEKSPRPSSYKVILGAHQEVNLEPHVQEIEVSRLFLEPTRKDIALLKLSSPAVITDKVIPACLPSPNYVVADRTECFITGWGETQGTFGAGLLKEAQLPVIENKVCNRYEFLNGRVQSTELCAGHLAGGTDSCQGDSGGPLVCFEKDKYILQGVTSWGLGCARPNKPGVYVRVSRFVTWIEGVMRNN
T1 sequence (P00747 97-580 limits assumed, species assumed): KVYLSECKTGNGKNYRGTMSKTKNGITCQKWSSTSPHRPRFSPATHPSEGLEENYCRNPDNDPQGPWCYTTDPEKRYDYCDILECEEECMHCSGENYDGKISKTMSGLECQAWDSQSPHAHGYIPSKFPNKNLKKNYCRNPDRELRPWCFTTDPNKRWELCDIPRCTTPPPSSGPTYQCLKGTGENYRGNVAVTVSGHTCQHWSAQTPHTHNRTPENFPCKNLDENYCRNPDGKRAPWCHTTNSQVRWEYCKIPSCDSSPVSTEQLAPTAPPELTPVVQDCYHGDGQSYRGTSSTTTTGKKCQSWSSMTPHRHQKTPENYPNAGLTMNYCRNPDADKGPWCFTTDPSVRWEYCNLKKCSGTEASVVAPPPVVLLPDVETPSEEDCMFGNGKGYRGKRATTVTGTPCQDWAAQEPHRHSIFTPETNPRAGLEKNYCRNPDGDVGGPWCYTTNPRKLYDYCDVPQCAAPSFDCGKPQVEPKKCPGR
Procedure: The antiplasmin active action was determined as the sample amount necessary for a 50% inhibition (IC₅₀: mg/ml) from the inhibition ratio of the fibrinolytic activity by plasmin, by using the fibrin plate method.
A fibrin plate was prepared according to the method of Warren et al. (Hemostasis Vol. 4, page 110, 1975) by dissolving under heating 100 mg of agarose in 5 ml of a 0.01 M phosphate buffer supplemented with 0.15 M sodium chloride, followed by cooling to 50°C. In this solution was dissolved 10 mg of a plasminogen free fibrinogen (Daiichi Kagaku Yakuhin), and after 0.1 ml of a thrombin solution (100 units/ml, Mochida Seiyaku) was dropwise added to the solution, the mixture was immediately poured into a laboratory dish (diameter 9 cm, Terumo) and left to cool, to be thereby solidified. A plasminogen free fibrin plate was prepared. By forming a well 6 mm in diameter at the center of the dish.

[7] = Table 5, 0.1 ml applied 5 minutes after bradykinin 50 µg/0.05 ml intradermal, vehicle control 30.1 ± 3.6
[8] = Table 9, 3 wt.%, 0.1 ml applied after kallikrein intradermal, vehicle control 18.68 ± 2.06
[9] = Table 7, same test methods as above (therapeutical test, bradykinin), vehicle control 35.4 ± 3.1

zinc 6-hexyloxypicolinate [Compound No. K]
Pruritic activity score (%) (bradykinin): 74.8%

zinc 6-undecylpicolinate [Compound No. O]
Pruritic activity score (%) (bradykinin): 65.0%

CN(C)CCOC(c1ccccc1)c1ccccc1 [Diphenhydramine, reference compound]
Pruritic activity/20 min. (pruritus of bradykinin [1]; [7]): 27.9 ± 2.0 | Pruritic activity/20 min. (pruritus of bradykinin [2]; Table 4, 1 wt.%, 0.1 ml external, mean ± SD, vehicle control 45.7 ± 5.7): 36.9 ± 3.0 | Pruritic activity/20 min. [3, 8]: 17.00 ± 1.26 | Pruritic activity/20 min. [4]: 12.4 ± 0.5

zinc 3-hydroxypicolinate
Pruritic activity score (%) (bradykinin): 58.0%

zinc 4-methylpicolinate [Compound No. C]
Pruritic activity score (%) (bradykinin): 74.1%

zinc 5-butoxypicolinate [Compound No. G]
Pruritic activity score (%) (bradykinin): 66.2%

zinc 4-nitropicolinate [Compound No. Q]
Pruritic activity score (%) (bradykinin): 58.3%

zinc picolinate
Pruritic activity/20 min. (pruritus of bradykinin [1]; [7]): 14.9 ± 0.3 | Pruritic activity/20 min. (pruritus of bradykinin [1]; [9]): 12.7 ± 0.7 | LD₅₀ value ([5]; Female rats, Oral): >2000 mg/kg | Lethality ([5]; Female rats, Oral, dose 200 mg/kg, suspended in 20% carboxymethyl cellulose): 0/5 | Lethality ([5]; Female rats, Subcutaneous, dose 70 mg/kg): 0/5 | Lethality ([5]; Female rats, Subcutaneous, dose 91 mg/kg): 0/5 | Lethality ([5]; Female rats, Subcutaneous, dose 118 mg/kg): 2/5 | Lethality ([5]; Female rats, Subcutaneous, dose 154 mg/kg): 5/5 | Lethality ([5]; Female rats, Subcutaneous, dose 200 mg/kg): 5/5 | LD₅₀ value ([5]; Female rats, Subcutaneous, suspended in 10% carboxylmethyl cellulose): 122 mg/kg | LD₅₀ value ([5]; Male rats, Oral): >2000 mg/kg | Lethality ([5]; Male rats, Oral, dose 200 mg/kg, suspended in 20% carboxymethyl cellulose): 0/5 | Lethality ([5]; Male rats, Subcutaneous, dose 70 mg/kg): 0/5 | Lethality ([5]; Male rats, Subcutaneous, dose 91 mg/kg): 1/5 | Lethality ([5]; Male rats, Subcutaneous, dose 118 mg/kg): 2/5 | Lethality ([5]; Male rats, Subcutaneous, dose 154 mg/kg): 4/5 | Lethality ([5]; Male rats, Subcutaneous, dose 200 mg/kg): 5/5 | LD₅₀ value ([5]; Male rats, Subcutaneous, suspended in 10% carboxylmethyl cellulose): 121 mg/kg | Skin primary irritation evaluation score [6]: 1.6 | IC₅₀ (plasmin): 2.3 mg/mL | Pruritic activity/20 min. (pruritus of bradykinin [2]; Table 4, 0.01 wt.%, 0.1 ml external, mean ± SD, vehicle control 45.7 ± 5.7): 17.5 ± 2.4 | Pruritic activity/20 min. (pruritus of bradykinin [2]; Table 4, 10 wt.%, 0.1 ml external, mean ± SD, vehicle control 45.7 ± 5.7): 15.5 ± 1.6 | Pruritic activity/20 min. (pruritus of bradykinin [2]; Table 6, 3 wt.%, 0.1 ml, vehicle control 40.1 ± 6.7): 17.7 ± 1.4^*1 | Pruritic activity/20 min. ([3]; Table 8, 0.01 wt.%, 0.1 ml applied five minutes after kallikrein 25 units/0.05 ml intradermal, vehicle control 19.95 ± 2.41): 12.95 ± 0.95 | Pruritic activity/20 min. ([3]; Table 8, 10 wt.%, 0.1 ml applied five minutes after kallikrein 25 units/0.05 ml intradermal, vehicle control 19.95 ± 2.41): 12.85 ± 0.70 | Pruritic activity/20 min. [3, 8]: 12.95 ± 0.95 | amount soluble in water as such: ≤ 0.5 % by weight | Pruritic activity/20 min. [4]: 7.4 ± 0.5

zinc pyrithione [reference compound]
Pruritic activity/20 min. (pruritus of bradykinin [2]; Table 6, 3.17 wt.%, 0.1 ml, vehicle control 40.1 ± 6.7): 43.4 ± 6.4

zinc 3-methylpicolinate [Compound No. B]
Pruritic activity score (%) (bradykinin): 65.9%

zinc 4-chloropicolinate [Compound No. R]
Pruritic activity score (%) (bradykinin): 18.5%

zinc 4-undecylpicolinate [Compound No. N]
Pruritic activity score (%) (bradykinin): 64.4%

zinc 3-propoxypicolinate [Compound No. D]
Pruritic activity score (%) (bradykinin): 41.2%

zinc 5-(2-ethylhexyloxy)picolinate [Compound No. L]
Pruritic activity score (%) (bradykinin): 60.3%

CN(C)CCOC(c1ccccc1)c1ccccc1 [Diphenhydramine hydrochloride, reference compound]
IC₅₀ (plasmin): No action at 10 mg/ml

zinc 4-t-butylpicolinate [Compound No. I]
Pruritic activity score (%) (bradykinin): 63.3%

zinc sulfate [reference compound]
Pruritic activity/20 min. (pruritus of bradykinin [2]; Table 6, 2.88 wt.%, 0.1 ml, vehicle control 40.1 ± 6.7): 33.7 ± 5.2

CC=CC(=O)N(CC)c1ccccc1C [Crotamiton, reference compound]
Pruritic activity/20 min. (pruritus of bradykinin [1]; [9]): 29.3 ± 3.3 | Pruritic activity/20 min. [3, 8]: 15.15 ± 1.92 | Pruritic activity/20 min. [4]: 18.9 ± 2.5

zinc 4-carboxypicolinate [Compound No. S]
Pruritic activity score (%) (bradykinin): 66.3%

zinc 3-undecylpicolinate [Compound No. M]
Pruritic activity score (%) (bradykinin): 70.1%

zinc 6-butoxypicolinate [Compound No. H]
Pruritic activity score (%) (bradykinin): 71.8%

zinc picolinate N-oxide [Compound No. P]
Pruritic activity score (%) (bradykinin): 85.0%

zinc 3-hexyloxypicolinate [J]
Pruritic activity score (%) (bradykinin): 75.7%

zinc 5-propoxypicolinate [Compound No. E]
Pruritic activity score (%) (bradykinin): 81.5%

Source: EP0433457B1, “ANTIPRURITIC COMPOSITION” (SHISEIDO COMPANY LIMITED, priority 1989, dated 1990)
